In ChEMBL document CHEMBL4665750, “Structure-Activity Relationship Study of Majusculamides A and B and Their Analogues on Osteogenic Activity” (J Nat Prod, 2020):
Calls of active or inactive are those of the source. No cut-off for these calls is given here.

Columns and labels:
[1] = system: MC3T3-E1; test: Osteogenic activity in mouse MC3T3-E1 cells assessed as mineralization at >= 30 uM after 6 days by Alizarin Red S staining-based method; assay type: functional, cell-based; settings: dose microM >=30, time 6.0 day
[2] = system: MC3T3-E1; test: Cytotoxicity against mouse MC3T3-E1 cells assessed as reduction in cell viability at 30 uM after 6 days by MTT assay; assay type: cell-based; settings: mc3t3-e1, 144 h, time 6 day
[3] = system: MC3T3-E1; test: Activation of alkaline phosphatase secretion in mouse MC3T3-E1 cells at >= 30 uM using 4-nitrophenyl phosphate as substrate after 6 days; assay type: cell-based; settings: dose microM >=30, time 6.0 day
[4] = system: MC3T3-E1; test: Osteogenic activity in mouse MC3T3-E1 cells assessed as mineralization at 15 uM after 6 days by Alizarin Red S staining-based method; assay type: functional, cell-based; settings: time 6.0 day
[5] = system: MC3T3-E1; test: Activation of alkaline phosphatase secretion in mouse MC3T3-E1 cells at 15 uM using 4-nitrophenyl phosphate as substrate after 6 days; assay type: cell-based; settings: filed as activator, time 6.0 day
[6] = system: MC3T3-E1; test: Activation of alkaline phosphatase secretion in mouse MC3T3-E1 cells at 30 uM using 4-nitrophenyl phosphate as substrate after 6 days; assay type: cell-based; settings: time 6.0 day
[7] = system: MC3T3-E1; test: Osteogenic activity in mouse MC3T3-E1 cells assessed as mineralization at 30 uM after 6 days by Alizarin Red S staining-based method; assay type: functional, cell-based; settings: time 6.0 day
[8] = system: MC3T3-E1; test: Cytotoxicity against mouse MC3T3-E1 cells assessed as reduction in cell viability at >= 30 uM after 6 days by MTT assay; assay type: cell-based; settings: mc3t3-e1, 144 h, time 6 day
[9] = system: MC3T3-E1; test: Osteogenic activity in mouse MC3T3-E1 cells assessed as mineralization at 7.5 uM after 6 days by Alizarin Red S staining-based method; assay type: functional, cell-based; settings: time 6.0 day

Structure (SMILES) | Activity [1] | Activity ([3]; filed as activator) | Activity [7] | other results
CCCCCCCCCC(=O)N(C)[C@H](Cc1ccc(OC)cc1)C(=O)N(C)[C@H](C(N)=O)C(C)C | Active | Active |  | Activity [2]: Toxic
CCCCCCCCCC(=O)[C@@H](C)C(=O)N(C)[C@H](Cc1ccc(OC)cc1)C(=O)N(C)[C@H](C(N)=O)C(C)C |  |  |  | Activity [4]: inactive; Activity [2]: Toxic; Activity [5]: Active
CCCCCCCC(=O)[C@@H](C)C(=O)N(C)[C@H](Cc1cc(Cl)c(OC)c(Cl)c1)C(=O)N(C)[C@H](C(N)=O)C(C)C |  |  | inactive | Activity [6]: inactive; Activity [2]: Toxic
CCCCCCCC(=O)[C@H](C)C(=O)N(C)[C@H](Cc1ccc(OC)cc1)C(=O)N(C)[C@H](C(N)=O)C(C)C | Active | Active |  | Activity [8]: Non-Toxic
CCCC(=O)[C@@H](C)C(=O)N(C)[C@H](Cc1ccc(OC)cc1)C(=O)N(C)[C@H](C(N)=O)C(C)C |  |  | inactive | Activity ([6]; filed as activator): Active
CCCCCCCC(=O)CC(=O)N(C)[C@H](Cc1ccc(OC)cc1)C(=O)N(C)[C@H](C(N)=O)C(C)C | inactive | Active |  | 
CCCCCCCC(=O)[C@@H](C)C(=O)N(C)[C@H](Cc1ccccc1)C(=O)N(C)[C@H](C(N)=O)C(C)C | inactive | Active |  | 
CCCCCCCC[C@H](C)C(=O)N(C)[C@H](Cc1ccc(OC)cc1)C(=O)N(C)[C@H](C(N)=O)C(C)C | inactive |  | Active | Activity [3]: inactive
CCCCCC(=O)[C@@H](C)C(=O)N(C)[C@H](Cc1ccc(OC)cc1)C(=O)N(C)[C@H](C(N)=O)C(C)C |  |  | inactive | Activity ([6]; filed as activator): Active
CCCCCCC[C@@H](O)[C@H](C)C(=O)N(C)[C@H](Cc1ccc(OC)cc1)C(=O)N(C)[C@H](C(N)=O)C(C)C |  |  | Active | Activity ([6]; filed as activator): Active
CCCCCCC[C@H](O)[C@@H](C)C(=O)N(C)[C@H](Cc1ccc(OC)cc1)C(=O)N(C)[C@H](C(N)=O)C(C)C |  |  | inactive | Activity ([6]; filed as activator): Active
CCCCCCCC(=O)[C@@H](C)C(=O)N(C)[C@H](Cc1ccc(OC)cc1)C(=O)N(C)[C@@H](C)C(N)=O |  | Active | inactive | Activity [9]: Active; Activity [4]: Active
CCCCCCCC(=O)[C@@H](C)C(=O)N(C)[C@H](Cc1ccc(OC)cc1)C(=O)N(C)[C@H](C(N)=O)C(C)C | Active | Active |  | Activity [8]: Non-Toxic
CCCCCCCC(=O)C(C)(C)C(=O)N(C)[C@H](Cc1ccc(OC)cc1)C(=O)N(C)[C@H](C(N)=O)C(C)C | inactive | Active |  | 
CCCCCCCC[C@@H](C)C(=O)N(C)[C@H](Cc1ccc(OC)cc1)C(=O)N(C)[C@H](C(N)=O)C(C)C | inactive |  | Active | Activity [3]: inactive
